In patent US20150141381A1, “TETRACYCLINE COMPOUNDS HAVING TARGET THERAPEUTIC ACTIVITIES” (Paratek Pharmaceuticals, Inc., priority 2001, published 2015):
Where two headings read alike, the source gives them in different places.

Legend:
[1] = tested on: S. aureus RN450; assay: In Vitro Anti-Bacterial Activity Assay (MIC), gram positive; type: cell-based; conditions: Staphylococcus aureus, RN450, 18 h
[2] = tested on: E. coli mL308 225; assay: In Vitro Anti-Bacterial Activity Assay (MIC), gram negative; type: cell-based; conditions: Escherichia coli, ML308225, 18 h
[3] = MIC class, Table 3, read-out: Antibiotic Activity Gram +
[4] = MIC class, Table 3, read-out: Antibiotic Activity Gram −
[5] = MIC class, Table 3 (Continued), read-out: Gram+ activity
[6] = MIC class, Table 3 (Continued), read-out: Gram− activity
[7] = gram positive bacteria, read-out: Antibiotic Activity Gram + (MIC)
[8] = gram negative bacteria, read-out: Antibiotic Activity Gram − (MIC)

SMILES	MIC [1, 3] [µg/mL]	MIC [2, 4] [µg/mL]	MIC [1, 7] [µg/mL]	MIC [2, 8] [µg/mL]	also measured
Cc1noc(C)c1S(=O)(=O)Nc1ccc2c(c1O)C(=O)C1=C(O)[C@]3(O)C(=O)C(C(N)=O)=C(O)[C@@H](N(C)C)[C@@H]3C[C@@H]1C2 [IP]	< 4	> 4			
Cc1ccsc1/C=C/c1ccc(O)c2c1C[C@H]1C[C@H]3[C@H](N(C)C)C(O)=C(C(N)=O)C(=O)[C@@]3(O)C(O)=C1C2=O					MIC [1, 5]: < 4 µg/mL; MIC [2, 6]: < 4 µg/mL
CC(C)CNCc1ccc2c(c1O)C(=O)C1=C(O)[C@]3(O)C(=O)C(C(N)=O)=C(O)[C@@H](N(C)C)[C@@H]3[C@@H](O)[C@@H]1[C@H]2C [JH]	< 4	< 4			
C[C@H]1c2ccc(CNCCc3ccccc3)c(O)c2C(=O)C2=C(O)[C@]3(O)C(=O)C(C(N)=O)=C(O)[C@@H](N(C)C)[C@@H]3[C@@H](O)[C@@H]21 [JI]	< 4	< 4			
C[C@H]1c2ccc(N(C)C3CCN(C)CC3)c(O)c2C(=O)C2=C(O)[C@]3(O)C(=O)C(C(N)=O)=C(O)[C@@H](N(C)C)[C@@H]3[C@@H](O)[C@@H]21			> 4	> 4	
CC(=O)c1cc(C(C)=O)c2c(c1O)C(=O)C1=C(O)[C@]3(O)C(=O)C(C(N)=O)=C(O)[C@@H](N(C)C)[C@@H]3C[C@@H]1C2 [EB]	< 4	> 4			
CCc1ccc(O)c2c1C[C@H]1C[C@H]3[C@H](N(C)C)C(O)=C(C(N)=O)C(=O)[C@@]3(O)C(O)=C1C2=O					MIC [1, 5]: < 4 µg/mL; MIC [2, 6]: < 4 µg/mL
CC(C)COC(=O)NCc1ccc(O)c2c1C[C@H]1C[C@H]3[C@H](N(C)C)C(O)=C(C(N)=O)C(=O)[C@@]3(O)C(O)=C1C2=O [FT]	< 4	> 4			
COc1ccc(CNC2CCCCC2)cc1-c1ccc(O)c2c1C[C@H]1C[C@H]3[C@H](N(C)C)C(O)=C(C(N)=O)C(=O)[C@@]3(O)C(O)=C1C2=O [I]	< 4	< 4			
CN(C)C(=O)C(=O)c1ccc(O)c2c1C[C@H]1C[C@H]3C(N(C)C)C(O)=C(C(N)=O)C(=O)[C@@]3(O)C(O)=C1C2=O (stereo partly shown) [MR]	< 4	< 4			
CN(C)[C@@H]1C(O)=C(C(N)=O)C(=O)[C@@]2(O)C(O)=C3C(=O)c4c(ccc(N5CCOCC5)c4O)C[C@H]3C[C@@H]12			> 4	> 4	
COc1cccc(C#Cc2cc(N(C)C)c3c(c2O)C(=O)C2=C(O)[C@]4(O)C(=O)C(C(N)=O)=C(O)[C@@H](N(C)C)[C@@H]4C[C@@H]2C3)c1			< 4	< 4	
CN(C)[C@@H]1C(O)=C(C(N)=O)C(=O)[C@@]2(O)C(O)=C3C(=O)c4c(O)ccc(/C=C/c5ccc(C(F)(F)F)cc5)c4C[C@H]3C[C@@H]12			< 4	> 4	
CN(C)[C@@H]1C(O)=C(C(N)=O)C(=O)[C@@]2(O)C(O)=C3C(=O)c4c(O)ccc(NC5CCN(Cc6ccccc6)CC5)c4C[C@H]3C[C@@H]12 [JN]	< 4	< 4			
CN(C)c1cc(CNC2C[C@H]3CC[C@@H]2C3)c(O)c2c1C[C@H]1C[C@H]3[C@H](N(C)C)C(O)=C(C(N)=O)C(=O)[C@@]3(O)C(O)=C1C2=O (stereo partly shown)			< 4	< 4	
CN(C)c1cc(CNC(=O)Oc2ccc(Br)cc2)c(O)c2c1C[C@H]1C[C@H]3[C@H](N(C)C)C(O)=C(C(N)=O)C(=O)[C@@]3(O)C(O)=C1C2=O [FH]					MIC ([1]; read-out: Antibiotic Activity Gram +): < 4 µg/mL; MIC ([2]; read-out: Antibiotic Activity Gram −): > 4 µg/mL
CSCc1cc(I)c2c(c1O)C(=O)C1=C(O)[C@]3(O)C(=O)C(C(N)=O)=C(O)[C@@H](N(C)C)[C@@H]3C[C@@H]1C2			< 4	< 4	
CN(C)[C@@H]1C(O)=C(C(N)=O)C(=O)[C@@]2(O)C(O)=C3C(=O)c4c(O)ccc(CNCC(C)(C)C)c4C[C@H]3C[C@@H]12			< 4	< 4	
CN(C)[C@@H]1C(O)=C(C(N)=O)C(=O)[C@@]2(O)C(O)=C3C(=O)c4c(O)c(-c5ccc6c(c5)OCO6)cc(-c5ccc6c(c5)OCO6)c4C[C@H]3C[C@@H]12			< 4	> 4	
CN(C)[C@@H]1C(O)=C(C(N)=O)C(=O)[C@@]2(O)C(O)=C3C(=O)c4c(O)ccc(N5CCOCC5)c4C[C@H]3C[C@@H]12 [drawing 3548]			< 4	< 4	
CC(NNC(N)=O)c1ccc(O)c2c1C[C@H]1C[C@H]3[C@H](N(C)C)C(O)=C(C(N)=O)C(=O)[C@@]3(O)C(O)=C1C2=O (stereo partly shown)			< 4	> 4	
CN(C)[C@@H]1C(O)=C(C(N)=O)C(=O)[C@@]2(O)C(O)=C3C(=O)c4c(O)ccc(-c5ccoc5)c4C[C@H]3C[C@@H]12 [drawing 3287]					MIC [1, 5]: < 4 µg/mL; MIC [2, 6]: < 4 µg/mL
CN(C)c1cc(C#CC2=CCCCC2)c(O)c2c1C[C@H]1C[C@H]3[C@H](N(C)C)C(O)=C(C(N)=O)C(=O)[C@@]3(O)C(O)=C1C2=O					MIC [1, 5]: < 4 µg/mL; MIC [2, 6]: < 4 µg/mL
